Measured values as given in patent US20230218572A1, “COMPOSITIONS AND METHODS FOR IMPROVED MESENCHYMAL STEM CELL THERAPY” (Versitech Limited, priority 2021, published 2023).
Entries after “also recorded” stand apart in the source; their conditions may differ.

Columns and labels:
CD55 mRNA = CD55 mRNA expression of hMSCs by RT-qPCR; format: cell-based, human; settings: for CD55 mRNA expression of hMSCs compared to untreated control: AT-, BM-, UC-hMSC, Erlotinib 2, 5, 10 μM or atorvastatin 2, 5, 25, 50 μM, within 24 hours, normalized to GADPH; for Dose dependence of CD55 upregulation in hMSCs: Erlotinib 2-10 μM, atorvastatin 2-50 μM; for Expression of CD55 on hMSC vs untreated control (mRNA or protein level not specified): drug treatment of hMSC
Protocol: (§1) FIG. 9 is a bar graph of CD55 mRNA expression of hMSCs in presence of atorvastatin, showing % Normalized to GADPH (0-25) for each MSC group Adipose Tissue (AT; red), Bone Marrow (BM; blue), and Umbilical Cord (UC; green), respectively, in the presence of 0 μM (untreated control) 2 μM, 5 μM, 25 μM, and 50 μM atorvastatin.
as §1, with “10” for “9”, “Erlotinib,” for “atorvastatin,”, “μM,” for “μM, 25 μM,”, “10” for “50”, “Erlotinib.” for “atorvastatin.”
(§2) The expression of CD55 in hMSC was then validated by RT-qPCR and flow cytometry.
hMSC were treated with Erlotinib, which is an EGFR inhibitor, on different dosages within 24 hours, […]

CD55 surface protein = CD55 surface protein expression on hMSCs by flow cytometry; format: cell-based, human; settings: AT-, BM-, UC-hMSC, 5 μM Atr or 5 μM Erl, 24 hr
Protocol: FIG. 11 is a bar graph of CD55 surface expression on hMSCs following 24 hr in presence of Atorvastatin (Atr) or Erlotinib (Erl), showing % of CD55+ cells (0-100) for each MSC group Adipose Tissue (AT; red), Bone Marrow (BM; blue), and Umbilical Cord (UC; green), respectively, in the presence of nothing (untreated control) 5 μM Atr, or 5 μM Erl.
as §2

SMILES	CD55 mRNA expression of hMSCs compared to untreated control (CD55 mRNA)	Dose dependence of CD55 upregulation in hMSCs (CD55 mRNA)	Expression of CD55 on hMSC vs untreated control (mRNA or protein level not specified) (CD55 mRNA)	CD55 surface protein level on hMSCs compared with untreated control (CD55 surface protein)
CC(C)c1c(C(=O)Nc2ccccc2)c(-c2ccccc2)c(-c2ccc(F)cc2)n1CC[C@@H](O)C[C@@H](O)CC(=O)O [atorvastatin, Atorvastatin]	increase the expression of CD55 of hMSCs in both mRNA and protein level	there was not a similar dose dependent relationship	significantly increased of CD55 expression; also recorded: significantly higher expression of CD55 than untreated control	increase the expression of CD55 of hMSCs in both mRNA and protein level
C#Cc1cccc(Nc2ncnc3cc(OCCOC)c(OCCOC)cc23)c1 [erlotinib, Erlotinib]	increased CD55 expression with significance difference in mRNA level compared to untreated control	dose dependent manner	significantly increased of CD55 expression; also recorded: significantly higher expression of CD55 than untreated control	significantly upregulated compared with untreated control
